Test results taken from ChEMBL document CHEMBL1141938 (Bioorg Med Chem Lett, 2005).

Columns and labels:
[1] = system: Human immunodeficiency virus; assay: Antiviral activity against 4X HIV strain; type: functional; details: Human immunodeficiency virus 1, 4X; read-out: CIC95
[2] = system: Human immunodeficiency virus; assay: Antiviral activity against mutant HIV isolate V-18C; type: functional; details: Human immunodeficiency virus 1, V-18C; read-out: CIC95
[3] = system: Human immunodeficiency virus; assay: Antiviral activity in MT4 human T lymphoid cells infected with wild type NL4-3 HIV; type: functional; details: Human immunodeficiency virus 1, NL4-3, MT4; read-out: CIC95
[4] = system: Human immunodeficiency virus; assay: Antiviral activity against mutant HIV isolate K-60C; type: functional; details: Human immunodeficiency virus 1, K-60; read-out: CIC95
[5] = system: Human immunodeficiency virus; assay: Antiviral activity against mutant HIV isolate Q-60C; type: functional; details: Human immunodeficiency virus 1, Q-60C; read-out: CIC95
[6] = target: Human immunodeficiency virus type 1 protease (Human immunodeficiency virus 1, UniProt Q72874)
Description: Inhibitory activity against HIV protease

[7] = Cmax in rat at 10 mg/kg, po; type: ADME, organism-based; set-up: dose 10 mg/kg, route oral; details: in vivo
Canis familiaris = assay: AUC in dog at 10 mg/kg, po; type: ADME, organism-based, Canis lupus familiaris, Plasma; set-up: dose 10 mg/kg, route oral; details: in vivo
[8] = Plasma clearance in dog at 10 mg/kg, po; type: ADME, organism-based, Canis lupus familiaris; set-up: dose 10 mg/kg, route oral
[9] = Oral bioavailability in rat at 10 mg/kg, po; type: ADME, organism-based; details: in vivo
Cytochrome P450 3A4 = Cytochrome P450 3A4 (Homo sapiens, UniProt P08684); assay: Inhibitory activity against CYP3A4; type: ADME
Rattus norvegicus [10] = assay: AUC in rat at 10 mg/kg, po; type: ADME, organism-based, Plasma; set-up: dose 10 mg/kg, route oral; details: in vivo
[11] = Plasma clearance in rat at 10 mg/kg, po; type: ADME, organism-based; set-up: dose 10 mg/kg, route oral
[12] = Half life in dog at 10 mg/kg, po; type: ADME, organism-based, Canis lupus familiaris; set-up: dose 10 mg/kg, route oral; details: in vivo
[13] = Oral bioavailability in dog at 10 mg/kg, po; type: ADME, organism-based, Canis lupus familiaris; details: in vivo
[14] = Cmax in dog at 10 mg/kg, po; type: ADME, organism-based, Canis lupus familiaris; set-up: dose 10 mg/kg, route oral; details: in vivo
Cytochrome P450 2C9 = Cytochrome P450 2C9 (Homo sapiens, UniProt P11712); assay: Inhibitory activity against CYP2C9; type: ADME
[15] = Half life in rat at 10 mg/kg, po; type: ADME, organism-based; set-up: dose 10 mg/kg, route oral; details: in vivo
Cytochrome P450 2D6 = Cytochrome P450 2D6 (Homo sapiens, UniProt P10635); assay: Inhibitory activity against CYP2D6; type: ADME
Rattus norvegicus [16] = assay: AUC in rat at 2 mg/kg, po; type: ADME, organism-based, Plasma; set-up: dose 2 mg/kg, route oral; details: in vivo
[17] = Cmax in rat at 2 mg/kg, po; type: ADME, organism-based; set-up: dose 2 mg/kg, route oral; details: in vivo
[18] = Plasma clearance in rat at 2 mg/kg, po; type: ADME, organism-based; set-up: dose 2 mg/kg, route oral
[19] = Half life in rat at 2 mg/kg, po; type: ADME, organism-based; set-up: dose 2 mg/kg, route oral; details: in vivo
[20] = Oral bioavailability in rat at 2 mg/kg, po; type: ADME, organism-based; details: in vivo

Cytochrome P450 2C9, sequence (P11712 whole entry): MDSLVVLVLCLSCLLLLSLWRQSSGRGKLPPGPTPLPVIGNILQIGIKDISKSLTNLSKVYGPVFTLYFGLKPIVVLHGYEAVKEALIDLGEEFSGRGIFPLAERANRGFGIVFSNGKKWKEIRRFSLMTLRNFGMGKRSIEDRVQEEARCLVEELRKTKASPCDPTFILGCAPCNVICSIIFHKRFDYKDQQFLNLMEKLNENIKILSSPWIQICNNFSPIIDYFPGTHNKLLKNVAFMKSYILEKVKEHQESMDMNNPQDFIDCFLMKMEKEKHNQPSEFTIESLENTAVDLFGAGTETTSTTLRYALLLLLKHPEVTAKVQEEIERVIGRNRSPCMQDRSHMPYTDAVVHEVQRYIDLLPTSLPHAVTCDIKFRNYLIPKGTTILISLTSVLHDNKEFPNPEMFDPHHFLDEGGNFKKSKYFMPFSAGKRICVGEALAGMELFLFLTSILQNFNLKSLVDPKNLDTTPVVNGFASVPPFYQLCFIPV
Cytochrome P450 2D6, sequence (P10635 whole entry): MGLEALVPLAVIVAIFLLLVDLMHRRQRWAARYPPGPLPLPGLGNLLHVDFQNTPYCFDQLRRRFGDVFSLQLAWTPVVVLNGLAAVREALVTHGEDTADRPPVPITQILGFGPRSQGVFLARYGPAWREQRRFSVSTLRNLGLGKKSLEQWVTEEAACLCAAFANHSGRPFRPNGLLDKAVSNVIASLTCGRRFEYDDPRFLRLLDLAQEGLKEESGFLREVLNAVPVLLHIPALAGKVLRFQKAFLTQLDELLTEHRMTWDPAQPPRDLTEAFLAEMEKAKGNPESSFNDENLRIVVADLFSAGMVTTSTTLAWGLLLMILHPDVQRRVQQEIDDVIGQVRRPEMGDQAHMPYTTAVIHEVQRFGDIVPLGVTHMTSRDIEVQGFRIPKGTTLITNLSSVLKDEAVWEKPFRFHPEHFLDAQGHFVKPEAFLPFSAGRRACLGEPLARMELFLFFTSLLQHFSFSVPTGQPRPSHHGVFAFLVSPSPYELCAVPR
Cytochrome P450 3A4, sequence (P08684 whole entry): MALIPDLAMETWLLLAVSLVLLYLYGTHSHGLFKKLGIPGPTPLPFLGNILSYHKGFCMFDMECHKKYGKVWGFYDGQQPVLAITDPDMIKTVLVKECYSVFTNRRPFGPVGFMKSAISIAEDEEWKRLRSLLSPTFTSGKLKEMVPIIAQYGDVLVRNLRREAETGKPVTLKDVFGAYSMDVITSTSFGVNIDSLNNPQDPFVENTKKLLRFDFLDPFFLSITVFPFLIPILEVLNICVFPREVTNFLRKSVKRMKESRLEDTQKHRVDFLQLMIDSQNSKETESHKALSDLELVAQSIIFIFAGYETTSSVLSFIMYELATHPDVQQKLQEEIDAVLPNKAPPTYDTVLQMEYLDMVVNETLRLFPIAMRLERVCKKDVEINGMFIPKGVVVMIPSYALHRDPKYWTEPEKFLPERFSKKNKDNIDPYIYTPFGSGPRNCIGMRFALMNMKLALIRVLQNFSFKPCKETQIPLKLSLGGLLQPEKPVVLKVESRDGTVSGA

Row | SMILES | IC95 [1] [nM] | IC95 [2] [nM] | IC95 [3] [nM] | IC95 [4] [nM] | IC95 [5] [nM] | IC50 [6] [nM] | also measured
1 | O=C(N[C@H]1c2ccccc2OC[C@H]1O)[C@H](Cc1cc2cnccc2s1)C[C@H](O)CN1CCN(Cc2ccc(-c3ccc(Cl)cc3)s2)C[C@H]1C(=O)NCC(F)(F)F | 15.6 | 125 | 15.6 | 31.3 | 31.3 | 0.05 | 
2 | CC(C)(c1ncc(-c2ccc(Cl)cc2)o1)N1CCN(C[C@@H](O)C[C@@H](Cc2cc3c(Cl)cncc3s2)C(=O)N[C@H]2c3ccccc3OC[C@H]2O)[C@H](C(=O)NCC(F)(F)F)C1 | < 7.8 | 15.6 | < 7.8 | < 7.8 | < 7.8 | < 0.02 | 
3 | CC(C)(C)NC(=O)[C@@H]1CN(Cc2cccnc2)CCN1C[C@@H](O)C[C@@H](Cc1ccccc1)C(=O)N[C@H]1c2ccccc2C[C@H]1O | 400 | > 1000 | 50 | > 1000 | > 1000 |  | 
4 | Cc1ccncc1-c1ccc(C[C@H](C[C@H](O)CN2CCN(C(C)(C)c3ncc(-c4ccc(Cl)cc4)s3)C[C@H]2C(=O)NCC(F)(F)F)C(=O)N[C@H]2c3ccccc3OC[C@H]2O)o1 | 31.3 | 250 | 15.6 | 15.6 | 31.3 | 0.03 | 
5 | CC(C)(c1ncc(-c2ccc(Cl)cc2)o1)N1CCN(C[C@@H](O)C[C@@H](Cc2cc3ccncc3o2)C(=O)N[C@H]2c3ccccc3OC[C@H]2O)[C@H](C(=O)NCC(F)(F)F)C1 | < 7.8 | 31 | < 7.8 | < 7.8 | < 7.8 | 0.02 | Cmax [7]: 180 nM; AUC (Canis familiaris): 0.39 uMh; CL/F [8]: 23 mL/min/kg; bioavailability [9]: 14%; IC50 (Cytochrome P450 3A4): < 1000 nM; AUC (Rattus norvegicus [10]): 0.29 uMh; CL/F [11]: 98 mL/min/kg; half-life [12]: 60 min; bioavailability [13]: 42%; Cmax [14]: 2100 nM; IC50 (Cytochrome P450 2C9): < 1000 nM; half-life [15]: 48 min; IC50 (Cytochrome P450 2D6): < 1000 nM
6 | Cc1ccncc1-c1ccc(C[C@H](C[C@H](O)CN2CCN(Cc3ncc(-c4ccc(Cl)cc4)o3)C[C@H]2C(=O)NCC(F)(F)F)C(=O)N[C@H]2c3ccccc3OC[C@H]2O)o1 | 62.5 | 125 | < 7.8 | 15.6 | 62.5 | 0.03 | 
7 | CC(C)(c1ncc(-c2ccc(Cl)cc2)s1)N1CCN(C[C@@H](O)C[C@@H](Cc2cc3cnccc3s2)C(=O)N[C@H]2c3ccccc3OC[C@H]2O)[C@H](C(=O)NCC(F)(F)F)C1 | < 7.8 | 31.3 | < 7.8 | < 7.8 | < 7.8 | 0.04 | 
8 | O=C(N[C@H]1c2ccccc2OC[C@H]1O)[C@H](Cc1cc2ccncc2o1)C[C@H](O)CN1CCN(Cc2ccc(-c3ccc(Cl)cc3)o2)C[C@H]1C(=O)NCC(F)(F)F | 31.3 | 62.5 | < 7.8 | < 7.8 | 15.6 | 0.05 | 
9 | CC(C)(c1ncc(-c2ccc(Cl)cc2)o1)N1CCN(C[C@@H](O)C[C@@H](Cc2cc3cnccc3s2)C(=O)N[C@H]2c3ccccc3OC[C@H]2O)[C@H](C(=O)NCC(F)(F)F)C1 | < 7.8 | < 7.8 | < 7.8 | < 7.8 | < 7.8 | 0.02 | AUC (Rattus norvegicus [16]): 0.36 uMh; IC50 (Cytochrome P450 3A4): < 1000 nM; Cmax [17]: 52 nM; IC50 (Cytochrome P450 2C9): < 1000 nM; CL/F [18]: 111 mL/min/kg; half-life [19]: 48 min; bioavailability [20]: 7.3%; IC50 (Cytochrome P450 2D6): < 1000 nM
10 | Cc1ccncc1-c1ccc(C[C@H](C[C@H](O)CN2CCN(Cc3csc(-c4ccc(F)cc4)n3)C[C@H]2C(=O)NCC(F)(F)F)C(=O)N[C@H]2c3ccccc3OC[C@H]2O)o1 | 15.6 | 62.5 | < 7.8 | 125 | 125 | 0.11 | 
11 | O=C(N[C@H]1c2ccccc2OC[C@H]1O)[C@H](Cc1cc2cnccc2s1)C[C@H](O)CN1CCN(Cc2ccc(-c3ccc(Cl)cc3)o2)C[C@H]1C(=O)NCC(F)(F)F | 15.6 | 125 | 15.6 | < 7.8 | 31.3 | 0.03 | 
12 | Cc1ccncc1-c1ccc(C[C@H](C[C@H](O)CN2CCN(Cc3ccc(-c4ccc(Cl)cc4)o3)C[C@H]2C(=O)NCC(F)(F)F)C(=O)N[C@H]2c3ccccc3OC[C@H]2O)o1 | 31.3 | 125 | 15.6 | < 7.8 | 62.5 | 0.08 | 
13 | Cc1ccncc1-c1ccc(C[C@H](C[C@H](O)CN2CCN(Cc3ccc(-c4ccc(Cl)cc4)s3)C[C@H]2C(=O)NCC(F)(F)F)C(=O)N[C@H]2c3ccccc3OC[C@H]2O)o1 | 15.6 | 62.5 | < 7.8 | 125 | 62.5 | 0.04 | 
14 | CC(C)(c1ncc(-c2ccc(Cl)cc2)o1)N1CCN(C[C@@H](O)C[C@@H](Cc2cc3ccncc3s2)C(=O)N[C@H]2c3ccccc3OC[C@H]2O)[C@H](C(=O)NCC(F)(F)F)C1 | < 7.8 | < 7.8 | < 7.8 | < 7.8 | < 7.8 | < 0.02 | 
15 | O=C(N[C@H]1c2ccccc2OC[C@H]1O)[C@H](Cc1cc2cnccc2s1)C[C@H](O)CN1CCN(Cc2csc(-c3ccc(C(F)(F)F)cc3)n2)C[C@H]1C(=O)NCC(F)(F)F | 125 | 375 | 26 | 31.3 | 93.8 | 0.07 | 
